From US12421210B2, “Fused bicyclic heterocycles as therapeutic agents” (NEW YORK UNIVERSITY, priority 2018, dated 2025)
Where two headings read alike, the source gives them in different places.

Biological target: human NAMPT enzyme (His-hNAMPT) (Homo sapiens (Human), UniProt P43490)
Test: NAMPT enzymatic inhibition assay (fluorescence, NADH product)
Format: biochemical
[1] = [BPS], read-out: NAMPT IC50 (μM) [BPS]

Chain of human NAMPT enzyme (His-hNAMPT) (P43490 whole entry): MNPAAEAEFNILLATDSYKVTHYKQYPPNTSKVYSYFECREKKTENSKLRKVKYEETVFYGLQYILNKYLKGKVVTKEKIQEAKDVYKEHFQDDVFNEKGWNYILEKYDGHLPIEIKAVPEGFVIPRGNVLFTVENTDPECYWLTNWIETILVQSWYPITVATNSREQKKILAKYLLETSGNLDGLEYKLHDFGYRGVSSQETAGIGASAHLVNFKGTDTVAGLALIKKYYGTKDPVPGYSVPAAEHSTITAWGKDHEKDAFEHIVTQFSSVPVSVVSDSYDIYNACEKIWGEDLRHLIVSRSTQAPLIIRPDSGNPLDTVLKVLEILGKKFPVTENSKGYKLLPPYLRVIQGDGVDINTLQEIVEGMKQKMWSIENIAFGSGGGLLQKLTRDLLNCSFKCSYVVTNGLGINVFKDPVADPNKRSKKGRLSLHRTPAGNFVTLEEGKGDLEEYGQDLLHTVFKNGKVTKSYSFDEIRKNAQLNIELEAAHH

SMILES	IC50 [1] [µM]	IC50 ([HDB], read-out: NAMPT IC50 (μM) [HDB]) [µM]
CC(C)(C)NC(=O)N1C[C@@H]2[C@@H](CCNC(=O)c3cc4cnccc4[nH]3)[C@@H]2C1 [Example 82, N(2-((1R,5S,6s)-3-(tert-butylcarbamoyl)-3-azabicyclo[3.1.0]hexan-6-yl)ethyl)-1H-pyrrolo[3,2-c]pyridine-2-carboxamide]	0.01 to 0.49	–
O=C(NCC[C@@H]1[C@H]2CN(C(=O)OC3CCOCC3)C[C@@H]12)c1cc2cnccc2[nH]1 [Example 83, (1R,5S,6s)-tetrahydro-2H-pyran-4-yl 6-(2-(1H-pyrrolo[3,2-c]pyridine-2-carboxamido)ethyl)-3-azabicyclo[3.1.0]hexane-3-carboxylate]	0.01 to 0.49	–
O=C(NCC[C@@H]1[C@H]2CN(S(=O)(=O)C3CCOCC3)C[C@@H]12)c1cc2cnccc2[nH]1 [Example 84, N-(2-((1R,5S,6s)-3-((tetrahydro-2H-pyran-4-yl)sulfonyl)-3-azabicyclo[3.1.0]hexan-6-yl)ethyl)-1H-pyrrolo[3,2-c]pyridine-2-carboxamide]	0.5 to 0.99	–
O=C(NCC[C@@H]1[C@H]2CN(C(=O)OC3CCOCC3)C[C@@H]12)c1cc2ccncc2s1 [Example 85, (1R,5S,6s)-tetrahydro-2H-pyran-4-yl 6-(2-(thieno[2,3-c]pyridine-2-carboxamido)ethyl)-3-azabicyclo[3.1.0]hexane-3-carboxylate]	–	0.01 to 0.49
Nc1ccc(/C=C/C(=O)NCC[C@@H]2[C@H]3CN(C(=O)c4ccc(F)cc4)C[C@@H]23)cn1 [Example 86, (E)-3-(6-aminopyridin-3-yl)-N-(2-((1R,5S,6s)-3-(4-fluorobenzoyl)-3-azabicyclo[3.1.0]hexan-6-yl)ethyl)acrylamide]	0.01 to 0.49	–
Cc1nc(C)c(C(=O)N2C[C@@H]3[C@@H](CCNC(=O)/C=C/c4ccc(N)nc4)[C@@H]3C2)o1 [Example 87, (E)-3-(6-aminopyridin-3-yl)-N-(2-((1R,5S,6s)-3-(2,4-dimethyloxazole-5-carbonyl)-3-azabicyclo[3.1.0]hexan-6-yl)ethyl)acrylamide]	0.01 to 0.49	–
Cc1nn(C)c(C)c1C(=O)N1C[C@@H]2[C@@H](CCNC(=O)/C=C/c3ccc(N)nc3)[C@@H]2C1 [Example 88, (E)-3-(6-aminopyridin-3-yl)-N-(2-((1R,5S,6s)-3-(1,3,5-trimethyl-1H-pyrazole-4-carbonyl)-3-azabicyclo[3.1.0]hexan-6-yl)ethyl)acrylamide]	0.01 to 0.49	–
Nc1ccc(/C=C/C(=O)NCC[C@@H]2[C@H]3CN(C(=O)c4cccc(F)c4)C[C@@H]23)cn1 [Example 89, (E)-3-(6-aminopyridin-3-yl)-N-(2-((1R,5S,6s)-3-(3-fluorobenzoyl)-3-azabicyclo[3.1.0]hexan-6-yl)ethyl)acrylamide]	0.01 to 0.49	–
Nc1ccc(/C=C/C(=O)NCC[C@@H]2[C@H]3CN(C(=O)c4ccc(OC(F)F)cc4)C[C@@H]23)cn1 [Example 90, (E)-3-(6-aminopyridin-3-yl)-N-(2-((1R,5S,6s)-3-(4-(difluoromethoxy)benzoyl)-3-azabicyclo[3.1.0]hexan-6-yl)ethyl)acrylamide]	0.01 to 0.49	–
Nc1ccc(/C=C/C(=O)NCC[C@@H]2[C@H]3CN(C(=O)c4cccc(OC(F)F)c4)C[C@@H]23)cn1 [Example 91, (E)-3-(6-aminopyridin-3-yl)-N-(2-((1R,5S,6s)-3-(3-(difluoromethoxy)benzoyl)-3-azabicyclo[3.1.0]hexan-6-yl)ethyl)acrylamide]	0.01 to 0.49	–
Cc1ccncc1C(=O)N1C[C@@H]2[C@@H](CCNC(=O)/C=C/c3ccc(N)nc3)[C@@H]2C1 [Example 92, (E)-3-(6-aminopyridin-3-yl)-N-(2-((1R,5S,6s)-3-(4-methylnicotinoyl)-3-azabicyclo[3.1.0]hexan-6-yl)ethyl)acrylamide]	0.01 to 0.49	–
CN1CCC(c2ccc(C(=O)N3C[C@@H]4[C@@H](CCNC(=O)/C=C/c5ccc(N)nc5)[C@@H]4C3)cc2)CC1 [Example 93, (E)-3-(6-aminopyridin-3-yl)-N-(2-((1R,5S,6s)-3-(4-(1-methylpiperidin-4-yl)benzoyl)-3-azabicyclo[3.1.0]hexan-6-yl)ethyl)acrylamide]	0.01 to 0.49	–
Nc1ccc(/C=C/C(=O)NCC[C@@H]2[C@H]3CN(C(=O)CC4CCOCC4)C[C@@H]23)cn1 [Example 94, (E)-3-(6-aminopyridin-3-yl)-N-(2-((1R,5S,6s)-3-(2-(tetrahydro-2H-pyran-4-yl)acetyl)-3-azabicyclo[3.1.0]hexan-6-yl)ethyl)acrylamide]	0.01 to 0.49	–
Nc1ccc(/C=C/C(=O)NCC[C@@H]2[C@H]3CN(C(=O)C4CCOCC4)C[C@@H]23)cn1 [Example 95, (E)-3-(6-aminopyridin-3-yl)-N-(2-((1R,5S,6s)-3-(tetrahydro-2H-pyran-4-carbonyl)-3-azabicyclo[3.1.0]hexan-6-yl)ethyl)acrylamide]	0.01 to 0.49	–
CC(C)(C)CNC(=O)N1C[C@@H]2[C@@H](CCNC(=O)/C=C/c3ccc(N)nc3)[C@@H]2C1 [Example 96, (1R,5S,6s)-6-(2-((E)-3-(6-aminopyridin-3-yl)acrylamido)ethyl)-N-neopentyl-3-azabicyclo[3.1.0]hexane-3-carboxamide]	0.01 to 0.49	–
O=C(NCC[C@@H]1[C@H]2CN(C(=O)c3ccc(F)cc3)C[C@@H]12)c1cc2ccncc2o1 [Example 97, N-(2-((1R,5S,6s)-3-(4-fluorobenzoyl)-3-azabicyclo[3.1.0]hexan-6-yl)ethyl)furo[2,3-c]pyridine-2-carboxamide]	0.01 to 0.49	–

SMILES	IC50 [1] [µM]	IC50 ([HDB], read-out: NAMPT IC50 (μM) [HDB]) [µM]
Cc1nc(C)c(C(=O)N2C[C@@H]3[C@@H](CCNC(=O)c4cc5ccncc5o4)[C@@H]3C2)o1 [Example 98, N-(2-((1R,5S,6s)-3-(2,4-dimethyloxazole-5-carbonyl)-3-azabicyclo[3.1.0]hexan-6-yl)ethyl)furo[2,3-c]pyridine-2-carboxamide]	0.01 to 0.49	–
O=C(NCC[C@@H]1[C@H]2CN(C(=O)CC3CCOCC3)C[C@@H]12)c1cc2ccncc2o1 [Example 99, N-(2-((1R,5S,6s)-3-(2-(tetrahydro-2H-pyran-4-yl)acetyl)-3-azabicyclo[3.1.0]hexan-6-yl)ethyl)furo[2,3-c]pyridine-2-carboxamide]	0.01 to 0.49	–
O=C(NCC[C@@H]1[C@H]2CN(C(=O)C3CCOCC3)C[C@@H]12)c1cc2ccncc2o1 [Example 100, N-(2-((1R,5S,6s)-3-(tetrahydro-2H-pyran-4-carbonyl)-3-azabicyclo[3.1.0]hexan-6-yl)ethyl)furo[2,3-c]pyridine-2-carboxamide]	0.5 to 0.99	–
O=C(NCC[C@@H]1[C@H]2CN(C(=O)CC3CCOCC3)C[C@@H]12)c1ccc2nccn2c1 [Example 101, N-(2-((1R,5S,6s)-3-(2-(tetrahydro-2H-pyran-4-yl)acetyl)-3-azabicyclo[3.1.0]hexan-6-yl)ethyl)imidazo[1,2-a]pyridine-6-carboxamide]	0.01 to 0.49	–
O=C(NCC[C@@H]1[C@H]2CN(C(=O)c3ccc(F)cc3)C[C@@H]12)c1ccc2nccn2c1 [Example 102, N-(2-((1R,5S,6s)-3-(4-fluorobenzoyl)-3-azabicyclo[3.1.0]hexan-6-yl)ethyl)imidazo[1,2-a]pyridine-6-carboxamide]	0.01 to 0.49	–
Cc1nc(C)c(C(=O)N2C[C@@H]3[C@@H](CCNC(=O)c4ccc5nccn5c4)[C@@H]3C2)o1 [Example 103, N-(2-((1R,5S,6s)-3-(2,4-dimethyloxazole-5-carbonyl)-3-azabicyclo[3.1.0]hexan-6-yl)ethyl)imidazo[1,2-a]pyridine-6-carboxamide]	0.01 to 0.49	–
O=C(/C=C/c1cccnc1)NCC[C@@H]1[C@H]2CN(C(=O)CC3CCOCC3)C[C@@H]12 [Example 104]	0.01 to 0.49	–
Cc1nc(C)c(C(=O)N2C[C@@H]3[C@@H](CCNC(=O)/C=C/c4cccnc4)[C@@H]3C2)o1 [Example 105, (E)-N-(2-((1R,5S,6s)-3-(2,4-dimethyloxazole-5-carbonyl)-3-azabicyclo[3.1.0]hexan-6-yl)ethyl)-3-(pyridin-3-yl)acrylamide]	0.01 to 0.49	–
O=C(NCC[C@@H]1[C@H]2CN(C(=O)CC3CCOCC3)C[C@@H]12)c1cnc2nccn2c1 [Example 106, N-(2-((1R,5S,6s)-3-(2-(tetrahydro-2H-pyran-4-yl)acetyl)-3-azabicyclo[3.1.0]hexan-6-yl)ethyl)imidazo[1,2-a]pyrimidine-6-carboxamide]	0.01 to 0.49	–
O=C(NCC[C@@H]1[C@H]2CN(C(=O)c3ccc(F)cc3)C[C@@H]12)c1cnc2nccn2c1 [Example 107, N-(2-((1R,5S,6s)-3-(4-fluorobenzoyl)-3-azabicyclo[3.1.0]hexan-6-yl)ethyl)imidazo[1,2-a]pyrimidine-6-carboxamide]	0.01 to 0.49	–
Cc1nc(C)c(C(=O)N2C[C@@H]3[C@@H](CCNC(=O)c4cnc5nccn5c4)[C@@H]3C2)o1 [Example 108, N-(2-((1R,5S,6s)-3-(2,4-dimethyloxazole-5-carbonyl)-3-azabicyclo[3.1.0]hexan-6-yl)ethyl)imidazo[1,2-a]pyrimidine-6-carboxamide]	0.01 to 0.49	–
O=C(NCC[C@@H]1[C@H]2CN(C(=O)CC3CCOCC3)C[C@@H]12)c1cc(-c2cccnc2)on1 [Example 109, 5-(pyridin-3-yl)-N-(2-((1R,5S,6s)-3-(2-(tetrahydro-2H-pyran-4-yl)acetyl)-3-azabicyclo[3.1.0]hexan-6-yl)ethyl)isoxazole-3-carboxamide]	0.01 to 0.49	–
O=C(NCC[C@@H]1[C@H]2CN(C(=O)c3ccc(F)cc3)C[C@@H]12)c1cc(-c2cccnc2)on1 [Example 110, N-(2-((1R,5S,6s)-3-(4-fluorobenzoyl)-3-azabicyclo[3.1.0]hexan-6-yl)ethyl)-5-(pyridin-3-yl)isoxazole-3-carboxamide]	0.01 to 0.49	–
Cc1nc(C)c(C(=O)N2C[C@@H]3[C@@H](CCNC(=O)c4cc(-c5cccnc5)on4)[C@@H]3C2)o1 [Example 111, N-(2-((1R,5S,6s)-3-(2,4-dimethyloxazole-5-carbonyl)-3-azabicyclo[3.1.0]hexan-6-yl)ethyl)-5-(pyridin-3-yl)isoxazole-3-carboxamide]	0.01 to 0.49	–
O=C(NCC[C@@H]1[C@H]2CN(C(=O)CC3CCOCC3)C[C@@H]12)c1cc2cnccc2[nH]1 [Example 112, N-(2-((1R,5S,6s)-3-(2-(tetrahydro-2H-pyran-4-yl)acetyl)-3-azabicyclo[3.1.0]hexan-6-yl)ethyl)-1H-pyrrolo[3,2-c]pyridine-2-carboxamide]	0.01 to 0.49	–
